Data taken from paper PMC9894685, “Abscisic acid agonists suitable for optimizing plant water use” (Frontiers in Plant Science, 2023).

Columns and labels:
RCAR11-ABI2 [1] = assay: Yeast ABA signal pathway LUC reporter, RCAR11-ABI2; type: cell-based, Arabidopsis thaliana
Experimental: (§1) The yeast cultivation and the life luciferase assay were performed as described ([Ruschhaupt et al., 2019]). Briefly, the reporter yeast expressing an ABA-dependent luciferase gene (LUC) was transformed with different combinations of ABA signaling components as indicated. Golden gate cloning ([Binder et al., 2014]) was used to construct pYEAST_LII_5‐6_CEN_URA vector with TDH3 promoter and TDH1 terminator (tTDH1), pYEAST_LII_1‐2_CEN_LEU vector with GK1 promoter and tTDH1, and pYEAST_LII_3‐4_CEN_TRP with the GAL1 promoter (pGAL1) and tTDH1 to express RCARs, PP2Cs, and OST1 (SnRK2.6), respectively ([Ruschhaupt et al., 2019]). The expression of ABF2 in yeast relies on a modified pGREG503 vector, in which pGAL1 ([Jansen et al., 2005]) was replaced by the ADH1 promoter.
(§2) Colonies of freshly transformed cells were inoculated in 0.5 mL supplemented synthetic dextrose (SD) medium and incubated at 30°C in a gyratory shaker (Thermoshake-THO500, Gerhardt, Königswinter, Germany) at 200 rpm for 16-18 h. After overnight growth, the cells were harvested and washed in SD medium followed by inoculation in SD medium containing 2% galactose for induction of SnRK2 kinases under the control of the GAL1 promoter and supplementation with ligands at indicated concentrations, to an OD600 of 0.2 in flat-bottom 96-well plates (CytoOne, Starlab, Hamburg, Germany). Yeast cultures were incubated at 30°C and 200 rpm for 16-18 h before determination of LUC activity and cell density. Light emission of yeasts was detected in a HIDEX plate luminometer (HIDEX, Turku, Finland) after injection of 100 µL freshly prepared luciferin substrate (1 mM D-luciferin, Promega) provided in 100 mM citric acid, pH 3 ([Leskinen et al., 2003]) for 5 s and was corrected for background. The LUC activity was normalized to the cell density (OD600) measured in 96-well flat plates (Sarstedt, Nümbrecht, Germany). LUC activity is given as the ratio of light emission to OD600 in counts per second.

RCAR1/PYL9-ABI2 = assay: Yeast ABA signal pathway LUC reporter, RCAR1-ABI2; type: cell-based, Arabidopsis thaliana
Experimental: as §1, with “The expression of ABF2 in yeast relies on a modified pGREG503 vector, in which pGAL1 ([Jansen et al., 2005]) was replaced by the ADH1 promoter.” left out
Colonies of freshly transformed cells were inoculated in 0.5 mL supplemented synthetic dextrose (SD) medium and incubated at 30°C in a gyratory shaker (Thermoshake-THO500, Gerhardt, Königswinter, Germany) at 200 rpm for 16-18 h. […] Light emission of yeasts was detected in a HIDEX plate luminometer (HIDEX, Turku, Finland) after injection of 100 µL freshly prepared luciferin substrate (1 mM D-luciferin, Promega) provided in 100 mM citric acid, pH 3 ([Leskinen et al., 2003]) for 5 s and was corrected for background. The LUC activity was normalized to the cell density (OD600) measured in 96-well flat plates (Sarstedt, Nümbrecht, Germany). […]

RCAR8/PYL5-ABI2 = system: T1, RCAR8/PYL5-ABI2; assay: Yeast ABA signal pathway LUC reporter, RCAR8-ABI2; type: cell-based, Arabidopsis thaliana
T1 construct: expressed in transfected cells; host or cells: yeast (LUC reporter strain)
Experimental: as §1, §2

RCAR11-ABI2 [2] = system: T2, RCAR11-ABI2; assay: In vitro phosphatase assay, ABI2 with RCAR11; type: biochemical, Arabidopsis thaliana; conditions: 100 nM ABI2, 200 nM RCAR11
T2 construct: 6xHis (N); made in house; host or cells: Escherichia coli BL21
Experimental: (§3) Expression, purification, and analysis of RCAR and PP2C proteins were performed essentially as described ([Ruschhaupt et al., 2019]). Briefly, the ABA receptors RCAR1, RACR8, and RCAR11 were expressed with an aminoterminal histidine tag using the pSEVA431_LII_6xHIS::RCAR1/RCAR8/RCAR11. ABA coreceptors were expressed as histidine-tagged fusions with the maltose-binding protein using the pSEVA431_LII_6xHIS::MBP::ABI2/HAB1. All constructs were transformed and expressed in Escherichia coli strain BL21 and purified to homogeneity according to supplier’s instruction (GE Healthcare, Chicago, USA). The receptor assay was performed with 100 nM PP2C and a two-fold molar excess of RCAR. Values are means ± SD of three replicates. […] The maximum inhibition was set to 100% in the figures. The phosphatase activity was measured using 4-methylumbelliferyl-phosphate as a substrate ([Meinhard and Grill, 2001]). The increase in fluorescence was recorded over 25 min with excitation and emission wavelengths at 360 and 460 nm, respectively, using a Synergy 2 plate reader (Bio-Tec, Winooski, USA).

RCAR8-ABI2 = assay: In vitro phosphatase assay, ABI2 with RCAR8; type: biochemical, Arabidopsis thaliana; conditions: 100 nM ABI2, 200 nM RCAR8
Experimental: as §3

RCAR1-HAB1 = biological target: T3, RCAR1-HAB1; assay: In vitro phosphatase assay, HAB1 with RCAR1; type: biochemical, Arabidopsis thaliana; conditions: 100 nM HAB1, 200 nM RCAR1
T3 construct: 6xHis (N); made in house; host or cells: Escherichia coli BL21
Experimental: as §3

Arabidopsis plants = assay: Progressive drought experiment: growth, water consumption, WUE; type: in vivo, Arabidopsis thaliana
Experimental: The progressive drought experiment was performed as described ([Yang et al., 2016]). Briefly, 18-day-old Arabidopsis plantlets grown under well-watered and short-day conditions (8 h light with 150 µmol m^-2 s^-1 PAR, 22°C, 50% relative humidity, and 16 h dark with 17°C, 60% relative humidity) were transferred to 0.2 L pots loaded with water-saturated soil (33.4 ± 0.4 g dry soil with 148 ± 2 g water). At the onset of the progressive drought (day 0), water was withheld, and a sealed soil surface prevented evaporation. A slowly increasing water deficit was achieved by transpirational water loss from plants. The progressive drought experiment lasted for eight weeks until mock-treated plants had consumed all the plant-usable water. […] For measuring growth and water consumption, leaf rosettes were regularly photographed, and the pots were weighed. The projected leaf area of Arabidopsis rosettes was analyzed by using Photoshop Elements software (Adobe, San Jose, USA). The consumed water was calculated as the difference in pot weight between day 0 and the designated days. The retained water was expressed as the difference between the pot weight at the end of the drought (day 57) and the weight of the loaded dry soil. Above-ground material was harvested at day 57, and the biomass was determined after drying the material for three days at 60°C to achieve constant weight. WUE was calculated as the ratio of above-ground dry biomass to consumed water. The data for the mock- and ABA-treated plants in the progressive drought experiment were already published ([Yang et al., 2019]).

SMILES: CCC(=C/C(=O)O)/C=C/C(O)(C(C)C)C1(C#N)CC1 (stereo not shown) [CCP2]
- ABA-agonistic activity in yeast LUC reporter (RCAR11-ABI2 [1]; 30 µM, not esterase-treated): revealed an ABA-agonistic activity
- Activation of the ABA response compared to ABA (RCAR11-ABI2 [1]; dose-dependent, 0.1-30 µM): comparable activity to ABA
- Higher exogenous concentration required for reporter expression comparable to 1 µM ABA (RCAR1/PYL9-ABI2): > 30 x
- Reporter induction relative to ABA (RCAR8/PYL5-ABI2; 1 µM exogenous ligand): no significant reporter regulation
- Higher level required for induction value comparable to 1 µM ABA (RCAR8/PYL5-ABI2; yeast, RCAR8-ABI2): > 30 x
- Inhibition of ABI2 compared to ABA (RCAR11-ABI2 [2]): comparable to ABA
- IC50 relative to ABA (fold higher) (RCAR8-ABI2): ~30 fold
- IC50 with HAB1 compared to the ABI2 results (RCAR1-HAB1): lower IC50 value
- WUE increase (Arabidopsis plants; 30 µM solute concentration): ~50%
- Growth of leaf rosettes compared to mock (Arabidopsis plants; 30 µM, three administrations): growth reduction
- Plant-usable soil water transpired (Arabidopsis plants; end of drought experiment): ~70%
- WUE improvement compared to controls (Arabidopsis plants; end of drought experiment): up to 50%
- Restriction of water consumption (Arabidopsis plants; single administration, for two weeks): approximately 30%
